In patent US20040171594A1, “Use of bis-acid(5-androsten-17-one-3beta-hydroxyl)diester for manufacture pharmaceuticals” (priority 2001, published 2004):
Marks after values point to notes of the source that are not given here.

What was measured:
[1] = tested on: thymus and spleen of mice; assay: Indexes of thymus and spleen of mice injected with cyclophosphamide; format: in vivo, NIH mice; conditions: cyclophosphamide 60 mg/kg i.p., drug 10 mg/kg intragastric for 30 days, n=10
Description: Chose 90 healthy NIH mice, weighing (18˜22)g, equal amount of male and female. Every mouse was injected with cyclophos phamide (60 mg/kg, intraperitoneally). […] Administered specimen through intragastric intubation in terms of the dose in Table 8. Continuously administered orally specimen for 30 days, all mice fasted on the 30th day, but were supplied with water. On the 31th day, mice of every group were killed. Weighed their body, thymus and spleen, calculated index of thymus and spleen, compared the difference among each group.

[2] = tested on: arrhythmia of rats induced by BaCl2; assay: Arrhythmia of rats induced by BaCl2; format: in vivo, SD rats; conditions: BaCl2 4 mg/kg, within 60 min, n=10
Description: 50 male SD rats, weighing (236.7±13.7)g, were anaesthetized with 10% chloral hadrate 0.3 g/kg intraperitoneally, recorded ECG with intubating of external jugular vein administering drug. As soon as injected with BaCl2 4 mg/kg, rats usually emerged VP and VT quickly and developed to be the steady and typical double-aspect arrhythmia. After immediately injected with drug or 0.5% CMC-Na into vein, recorded the time of recovering and maintaining sinus rhythm within 60 min as standard, and compared the function between five groups. […] Time of maintaining sinus rhythm was longer and acted more quickly than that of Amiodarone group.

[3] = tested on: myocardium injury model of rats induced by ISO; assay: Myocardium injury (myocardial ischemia) model of rats induced by ISO; format: in vivo, SD rats; conditions: drug 0.76 mg/kg, n=8; for Σ ST: rats, ISO s.c.
Description: SD rats were measured ECG by chest leads before experiment, abandoned those of abnormal or arrhythmia at T wave, ST sect. […] They were divided into four groups according to Table 4, eight rats in each group. As dose of Table 4, tested compounds or 0.5% CMC-Na solution with same volume were administered through duodenum for 30 minutes, rats were anaesthetized with aether. After ECG was recorded, Isoproterenol (ISO) was administered by subcutaneous injection from the back, recorded ECG again after 30 minutes. After specimen was intragastricly granted for 24 hours and 48 hours, every group was administered simples again and recorded ECG again in terms of the methods stated above. After 72 hours, bleeding from the ophthalmic venous plexus and separated blood serum through centrifugation. Killed the rats, scissor the tip of the heart to prepare 10% myocardial tissue homogenate with 4° C. physiological saline as standby.
Measured each rat's value of ST before first administering ISO. And after first, second and third subcutaneous injection for 30 minutes, calculated mv mean value of ΣST as guide line of myocardium injury and performed t test.
The changes of MDA LDH and CK in serum were measured with agent kits.
The changes of MDA, LDH and CK in serum and myocardial tissue homogenate were measured with agent kits.

[4] = tested on: cerebral ischemia-reperfusion injury of mice; assay: Memory step-through test after cerebral ischemia-reperfusion injury; format: in vivo, NIH mice; conditions: 4.5 mg/kg intragastric once a day for 10 days, n=10
Description: After weighed, NIH mice were anaesthetized with Penbotarbital 60 mg/kg, then performed operation. Fixed at supine position, the skin in the middle of the deck was dissected about 7 mm. Separated common carotid artery of two sides of neck, surrounded with the thread of No “0”. Common carotid artery of two sides was chipped with artery clip for 2 minutes to induce cerebral ischemia. In the end of ischemia treatment, artery clip was loosed and blood perfusion was restored, rest for five minutes, repeated twice as that. After blocking blood flow of carotid, sutured incision. Recorded trail bloodletting, bloodletting quantity was no more than 10% of total blood quantity. After operation, […] were administered with proper physiological saline through intraperitoneal injection in order to supple capacity of blood. After pseudo operation group was anaesthetized, carotid of two sides was separated but blood flow was not blocked, without being bloodletting too.
In experiment appearance of body temperature lowering and righting reflex disappearing was as positive guide-line of ischemia, discarding those without typical guide line of ischemia. In the procedure of ischemia or after operation, some of animals would be dead. […] According to the dose of Table 7, animals were administered with medicine by intragastric intubation once a day, and continue administered drug for 10 days. After 10 days, memory test was performed.

[5] = tested on: osteoporosis model of rats induced by Retinoic acid; assay: Osteoporosis model of rats induced by Retinoic acid; format: in vivo, SD rats; conditions: Retinoic acid 70 mg/kg, specimen orally 30 days (dose not given), right thighbone, n=8
From the text: After continuously administering specimen for 30 days, killed rats and took right thighbone of rat.
Took same part tissue of right thighbone, routinely decalcified, enveloped with olefin, and dyed with HE. Observed with ordinary optics microscope, import all imagines into computer with A/D conversion of pickup camera, via dealing with image analysis software obtained index of guide line as follows: relative bone volume, indicating percentage that bone trabecula accounted for medullary cavity, 1.25×10×4 times; average width of bone trabecula, 1.25×10×10 times; amount of cell per area in bone trabecula, gathering same area image (640×480) of bone trabecula with image analysis software, calculating amount of bone cell in corresponding area, 1.25×10×40 times; Average length of bone cell lacuna, 1.25×10×40; Average width of bone cell lacuna, 1.25×10×40. The above five indexes of static state guide-line were all observed for ten eyeshots, calculating their average value.

[6] = tested on: acute renal failure of mice induced by endotoxin; assay: Acute renal failure model induced by endotoxin; format: in vivo, NIH mice; conditions: drug 10 mg/kg i.p., endotoxin 0.06 g/kg, after five hours, n=10; for GSH-Px: mice kidney homogenate; for BUN / Cr: mice serum
Description: After five hours, blood of the mice was collected by removing eyes, assayed Blood Urea Nitrogen (BUN) and Creatinine (Cr) concentration of serum. One kidney of each […] was taken out and made 100 mL/L homogenate, assayed activity of Glutathione Peroxidase (GSH-Px) enzyme.

[7] = myocardial tissue homogenate of rats with ISO myocardium injury
[8] = serum of rats with ISO myocardium injury, after 72 hours

Substance | Index of spleen [1] | Index of thymus [1] | Activity of CK [3, 7] | Activity of LDH [3, 7] | MDA [3, 7] | Σ ST ([3]; 30 min) | Σ ST ([3]; 24 h) | Σ ST ([3]; 48 h) | Σ ST ([3]; 72 h) | Activity of CK [3, 8] | Activity of LDH [3, 8] | MDA [3, 8] | Latency of dark cabin, Memory [4] | Latency of dark cabin, Study [4] | Number of error [4] | Amount of cell per area in bone trabecula [5] | Average width of bone trabecula [5] | Relative bone volume [5] | GSH-Px [6] | BUN [6] | further results
butanediol-disulphonic acid-(5-androsten-17-one-3β-ol)-diester [Compound I] | 69.60 ± 16.10 mg/10 g body weight | 16.44 ± 3.25 mg/10 g body weight | 214.27 ± 40.62 U/L | 159.82 ± 31.69 U/L | 115.02 ± 10.34 nmol/g | 0.49 ± 0.12 mv | 0.54 ± 0.12 mv | 0.50 ± 0.06 mv | 0.54 ± 0.08 mv | 242.14 ± 22.72 U/L | 233.35 ± 18.46 U/L | 24.64 ± 2.53 nmol/mL | 46.5 ± 13.8 s | 25.7 ± 14.8 s | 3.1 ± 1.7 n | 31.84 ± 3.94 | 61.37 ± 4.71 μm | 29.84 ± 3.56 % | 37.6 ± 15.1 nU · L^−1 | 344.4 ± 40.6*** 10 mg · L^−1 | time of maintaining sinus rhythm ([2]; drug 0.5 mg/kg into vein): 45.478 ± 5.271 min; time of storing sinus rhythm ([2]; drug 0.5 mg/kg into vein): 6.752 ± 4.132 min; Cr [6]: 34.41 ± 9.65*** 10 mg · L^−1
pentanediol-disulphonic acid-(5-androsten-17-one-3β-ol)-diester [Compound J] | 61.29 ± 15.34 mg/10 g body weight | 17.24 ± 3.34 mg/10 g body weight | 268.28 ± 42.59 U/L | 197.45 ± 26.88 U/L | 95.67 ± 15.67 nmol/g | 0.54 ± 0.12 mv | 0.52 ± 0.07 mv | 0.56 ± 0.07 mv | 0.54 ± 0.08 mv | 239.40 ± 16.15 U/L | 257.05 ± 31.30 U/L | 26.47 ± 3.25 nmol/mL | 52.0 ± 17.2 s | 30.8 ± 15.0 s | 3.2 ± 1.6 n | 29.84 ± 3.16 | 67.84 ± 4.68 μm | 37.55 ± 3.26 % | 32.2 ± 13.1 nU · L^−1 | 337.6 ± 32.8*** 10 mg · L^−1 | time of maintaining sinus rhythm ([2]; drug 1.5 mg/kg into vein): 51.762 ± 6.275 min; time of storing sinus rhythm ([2]; drug 1.5 mg/kg into vein): 3.584 ± 2.471 min; time of maintaining sinus rhythm ([2]; drug 2.5 mg/kg into vein): 59.248 ± 1.527 min; time of storing sinus rhythm ([2]; drug 2.5 mg/kg into vein): 0.845 ± 1.529 min; Cr [6]: 37.60 ± 8.44*** 10 mg · L^−1
